Results on one compound are retold here after patent US6379697B1, “Stabilization of photosensitive materials” (The Secretary of State for Defence in Her Britannic …, priority 1994, dated 2002).

The nature of this data set: Photodegradation of riboflavin preparations under UV irradiation (254/365 nm), first order kinetics. The class given is physicochemical. Particulars: for half-life: aqueous solution of free riboflavin under UV irradiation. How it is done:
At time intervals a known amount of the solution or suspension was diluted with double distilled water and the absorbance or fluorescence measured.
In the case of the liposome suspensions liposomal pellets were produced, solubilised with a 10% solution of Triton-X-100 (RTM) and then diluted and measured. The entrapment and degradation of riboflavin was calculated from the absorbance readings at 444 nm, absorbance at this wavelength not interfering with the absorbance of Triton-X-100.
The photodegradation of riboflavin caused by UV irradiation follows first order kinetics and is given by the following equation: […]
where C0 is the initial concentration of riboflavin, C is the concentration of riboflavin after t min of irradiation and k is the first order photodegradation rate constant.
The graphic representation of Equation (2) is linear and the slope of the line gives the photodegradation rate constant k.
The increase in stability was expressed by the stabilization ratio. (k0/k), where k0 is the photodegradation constant of free riboflavin in aqueous solution and k the photodegradation rate constant of the various preparations.
Riboflavin gamma-cyclodextrin inclusion complexes were entrapped in DRV incorporating a light absorbing agent or antioxidant in their lipid phase selected from: oil Red 0, oxybenzone, deoxybenzone and beta-carotene or combinations thereof. […] As in the previous examples this degradation followed first order kinetics represented by the equations given earlier.
In order to determine the extent of this reduction and to determine whether during the photodegradation of riboflavin the same concentration of oil Red 0 caused different reductions in fluorescence, solutions containing known amounts of riboflavin and oil Red 0 solubilised in water using Triton-X-100 were prepared and their fluorescence measured.

Like-named read-outs stand apart in the source and are kept apart here.

For `Cc1cc2nc3c(=O)[nH]c(=O)nc-3n(C[C@H](O)[C@H](O)[C@H](O)CO)c2cc1C` [Riboflavin, riboflavin], the half-life (in general, the time needed for the level to fall by half in the phase considered) is, setting by setting: (aqueous solution, irradiation, read-out: half life of riboflavin in aqueous solution on irradiation) approximately 30 min; (free riboflavin, UV irradiation, read-out: half life of riboflavin) 30 min. For the same compound, for the setting “aqueous solution, irradiation”, the “rate of decomposition of riboflavin in aqueous solution on irradiation” value worked out at 0.024 min⁻¹. The “k × 10^3, rate constant for the photodegradation of riboflavin” value (values are k × 10^3, UV lamp 254/365 nm, 3 cm, 24° C.) was 24(k °) min^−1.
